Measurements published in patent publication US6403034B1, “Method of reducing the concentration of recalcitrant organic contamination in a soil matrix” (priority 1995, dated 2002).
Read-outs that look alike come from different tables or passages of the source.

Columns and labels:
[1] = Relative recalcitrancy classification of organic contaminants (FIG. 1); assay type: physicochemical
[2] = Ozonation of contaminated soil slurry in 5-L reaction flask (Examples 1, 2 and 7); assay type: physicochemical
[3] = assay type: physicochemical; conditions: for soil concentration reduced by: continuous ozonation for 56 days
[4] = Laboratory ozonation of contaminants, incubation versus oxidation phase (FIGS. 2, 5, 6, 8-12); assay type: physicochemical; conditions: for incubation time: lab conditions
[5] = aqueous solubility; cited from earlier work
[6] = by solubility, volatility and non-reactivity standards

Question: Which relative recalcitrancy [1] does the source give for `ClC1=C(Cl)C2(Cl)C3C4C=CC(C4)C3C1(Cl)C2(Cl)Cl` (stereo not shown) [Aldrin] here?
Answer: strongly recalcitrant

Question: For `c1ccccc1` [Benzene], which relative recalcitrancy [1, 6] is on record?
Answer: non-recalcitrant

Question: With `ClC1=C(Cl)C2(Cl)C3C(Cl)C(Cl)CC3C1(Cl)C2(Cl)Cl` (stereo not shown) [Chlordane] as the molecule, how does the relative recalcitrancy [1] read?
Answer: strongly recalcitrant

Question: For `Clc1ccc(C(c2ccc(Cl)cc2)C(Cl)(Cl)Cl)cc1` [DDT], which relative recalcitrancy [1] is on record?
Answer: strongly recalcitrant

Question: For `CCCCCCCCOC(=O)c1ccccc1C(=O)OCCCCCCCC` [Di-n-octyl phthalate], which “concentration reduced by” value ([2]; Example 2, in 48 hours of ozonation, start 37 mg/Kg) is on record?
Answer: 97%

Question: For `O=S1OCC2C(CO1)C1(Cl)C(Cl)=C(Cl)C2(Cl)C1(Cl)Cl` (stereo not shown) [Endosulfan II], which incubation phase ([3]; 31 mg/kg, FIG. 17) is on record?
Answer: about 16 days

Question: What about the “soil concentration reduced by” value [3] of the same molecule?
Answer: 100%

Question: With `CCOP(=S)(OCC)Oc1ccc([N+](=O)[O-])cc1` [Ethyl Parathion] as the molecule, how does the “soil concentration reduced by” value [3] read?
Answer: 100%

Question: For `Clc1c(Cl)c(Cl)c(Cl)c(Cl)c1Cl` [HCB], which “incubation phase (ozonation time)” value [4] is on record?
Answer: ~8 h

Question: With `Oc1c(Cl)c(Cl)c(Cl)c(Cl)c1Cl` [PCP, Pentachlorophenol] as the molecule, how does the “concentration reduced by” value ([2]; Example 1, in 31 hours, start 28 mg/Kg) read?
Answer: 97.5%

Question: What about the incubation time ([4]; FIG. 10) of the same molecule?
Answer: about 45 minutes

Question: With `CCOP(=S)(OCC)Oc1ccc([S+](C)[O-])cc1` (stereo not shown) [Phensulfothion] as the molecule, how does the “soil concentration reduced by” value [3] read?
Answer: 100%

Question: With `c1cc2c3c(cccc3c1)CC2` [acenapthene] as the molecule, how does the relative recalcitrancy [1] read?
Answer: recalcitrant

Question: For `c1ccc2cc3ccccc3cc2c1` [anthracene], which relative recalcitrancy [1, 6] is on record?
Answer: recalcitrant

Question: With `c1ccc2c(c1)cc1ccc3cccc4ccc2c1c34` [benzo(a)pyrene] as the molecule, how does the incubation time ([4]; FIGS. 6, 8, 9) read?
Answer: more than 5 hours

Question: With `c1ccc(-c2ccccc2)cc1` [biphenyl] as the molecule, how does the relative recalcitrancy [1] read?
Answer: marginally recalcitrant

Question: And the solubility [5]?
Answer: 5,200 μg/L

Question: Which results are given for `CCCCC(CC)COC(=O)c1ccccc1C(=O)OCC(CC)CCCC` (stereo not shown) [bis(2-ethylhexyl)phthalate]?
Answer: relative recalcitrancy [1, 6]: recalcitrant; concentration reduced by ([2]; Example 2, in 72 hours of ozonation, start 597 mg/Kg): 98.2%; incubation time ([4]; FIGS. 6, 8, 9): less than 30 hours

Question: With `c1ccc2c(c1)ccc1c3ccccc3ccc21` [chrysene] as the molecule, how does the relative recalcitrancy [1] read?
Answer: recalcitrant

Question: For `CCc1ccccc1` [ethylbenzene], which relative recalcitrancy [1] is on record?
Answer: non-recalcitrant

Question: For `CCCCCCC` [heptane], which relative recalcitrancy [1, 6] is on record?
Answer: non-recalcitrant

Question: Which relative recalcitrancy [1] does the source give for `CCOC(=O)CC(SP(=S)(OC)OC)C(=O)OCC` (stereo not shown) [malathion] here?
Answer: recalcitrant

Question: Which relative recalcitrancy [1] does the source give for `c1ccc2ccccc2c1` [napthalene] here?
Answer: recalcitrant
